Assay results from patent US11712438B2, “Phenyl derivatives as PGE2 receptor modulators” (IDORSIA PHARMACEUTICALS LTD, priority 2017, dated 2023).

How the values were obtained:
Assay in all cases: cell-based
PTGER2 (EP2) = PTGER2 (EP2) (Homo sapiens, UniProt P43116)
From the text: The assay is using the PathHunter™ HEK 293 PTGER2 and PTGER4 b-arrestin cell lines from DiscoverX. The system is based on the Enzyme Fragment Complementation Technology. Two complementing fragments of the b-galactosidase enzyme are expressed within stably transfected cells. The larger portion of b-gal, termed EA for Enzyme Acceptor, is fused to the C-terminus of b-arrestin 2. The smaller fragment, termed ProLink™ tag, is fused to PTGER2 (EP2) or PTRGER4 (EP4) at the C-terminus. Upon activation, b-arrestin is recruited which forces the interaction of ProLink and EA, allowing complementation of the two fragments of b-gal and the formation of a functional enzyme which is capable of hydrolysing the substrate and generating a chemiluminescent signal.
The HEK 293 PTGER2 b-arrestin cells (DiscoverX 93-021-4C1) are detached from culture dishes with a cell dissociation buffer (Invitrogen, 13151-014), and collected in growing medium (GM: DMEM+Glutamax-I (Invitrogen 32430)/10% FCS, 1% Penicilin/streptomycin). 5000 cells per well of a 384 well plate (white with white bottom Greiner 781080) are seeded in 20 ul per well of GM. Plate is incubated at 37° C., 5% CO2 for 24 hours.
Stock solutions of test compounds are made at a concentration of 10 mM in DMSO, and serially diluted in DMSO to concentrations required for inhibition dose response curves (tested concentration range 10 μM-2 nM or 1 μM-0.2 nM).
PGE2 (Cayman 14010, stock solution: 10 mM in DMSO) is used as agonist at 5 μM final concentration, corresponding to EC80.
Five microliters of diluted compounds are transferred into the assay plate. Plate is pre-incubated 15 minutes at 37° C. Then five microliters of PGE2 (final conc. 5 μM) are transferred into the assay plate. Plate is incubated 120 minutes at 37° C.
Twelve μl of reagent are transferred to the assay plate and incubate for 1 hour at room temperature in the dark. Luminescence counts are read on a BMG Fluostar Optima reader according to manufacturer's instructions.
For each compound concentration calculate of the percentage of activity compared to DMSO control value as average±STDEV. (each concentration is measured in duplicate)
(§1) When compounds were measured multiple times, mean values are given.

EP4 = EP4 (Homo sapiens, UniProt P35408);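 note: inhibition of PGE2-evoked (6 nM) cAMP accumulation in BT549 breast cancer cells endogenously expressing EP4, cAMP read by HTRF competitive immunoassay after 30 min at room temperature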
From the text: Human tumor cell lines expressing endogenously either EP4 or EP2 are used and cAMP accumulation in cells upon PGE2 stimulation is monitored.
(§2) As a detection method for cAMP the HTRF (homogeneous time resolved fluorescence) Cisbio kit (HTRF cAMP dynamic 2 kit 20′000 tests Cisbio Cat. #62AM4PEC) was used, which is based on a competitive immunoassay using a Cryptate-labeled anti-cAMP antibody and d2-labeled cAMP. Native cAMP produced by cells or unlabeled cAMP (for the standard curve) compete with exogenously added d2-labeled cAMP (acceptor) for binding to monoclonal anti-cAMP-Eu3+ Cryptate (donor). A FRET signal (Fluorescence Resonance Energy Transfer) is obtained only if the labeled anti-cAMP antibody binds the d2 labelled cAMP, thus the specific signal (i.e. energy transfer) is inversely proportional to the concentration of cAMP in the standard or sample.
The BT549 cells (NCI/No. 0507282) are detached from culture dishes with a cell dissociation buffer (Invitrogen, 13151-014), and collected in growing medium (GM: RPM11640 (Invitrogen 21875)/10% FCS, 1% Penicilin/streptomycin). Cells are counted washed and resuspended in assay buffer (AB; HBSS, 20 mM HEPES, 0.2% BSA; 2 mM IBMX). 4′000 cells in 5 μl of AB are seeded per well of a small volume 384 well plate (black with flat bottom, Greiner 784076).
Stock solutions of test compounds are made at a concentration of 10 mM in DMSO, and serially diluted in DMSO to concentrations required for inhibition dose response curves (tested concentration range 30 μM-0.4 nM; 30 μM-0.015 nM or 1 μM-0.01 nM).
PGE2 (Cayman 14010, stock solution: 6 μM in DMSO) is used as agonist at 6 nM final concentration, corresponding to EC80.
Two point five microliters of diluted compounds are transferred into the assay plate. Plate is pre-incubated 45 minutes at room temperature. Subsequently, 2.5 microliters of PGE2 (final conc. 6 nM) are transferred into the assay plate. Plate is incubated 30 minutes at room temperature.
(§3) For each compound concentration the percentage of cAMP compared to DMSO control value as average±STDEV (each concentration is measured in duplicate) is calculated.
as §1

EP2 = EP2 (Homo sapiens, UniProt P43116);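 note: SF295 glioblastoma cells with endogenous EP2 only, PGE2-stimulated cAMP accumulation read by HTRF competitive immunoassay, 45 min pre-incubation then 30 min at room temperature, IBMX in buffer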
Chain of EP2 (P43116 whole entry): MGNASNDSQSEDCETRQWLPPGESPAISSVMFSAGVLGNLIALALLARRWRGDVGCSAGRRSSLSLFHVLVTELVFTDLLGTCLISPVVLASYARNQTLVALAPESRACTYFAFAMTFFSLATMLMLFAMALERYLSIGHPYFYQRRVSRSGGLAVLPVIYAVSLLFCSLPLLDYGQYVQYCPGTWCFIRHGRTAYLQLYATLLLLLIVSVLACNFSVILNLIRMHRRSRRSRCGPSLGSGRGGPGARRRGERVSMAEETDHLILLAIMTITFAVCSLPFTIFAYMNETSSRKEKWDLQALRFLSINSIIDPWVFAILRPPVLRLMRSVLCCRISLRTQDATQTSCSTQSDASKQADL
Method: The antagonistic activities of the compounds of formula (I) on the EP2 and EP4 receptors are also determined in accordance with the following experimental method.
Human tumor cell lines expressing endogenously either EP4 or EP2 are used and cAMP accumulation in cells upon PGE2 stimulation is monitored. SF295 glioblastoma cells express high endogenous EP2 and no EP4,whereas BT549 breast cancer cells, express high endogenous EP4 levels and very low EP2 levels.
as §2
The SF295 cells (NCI/No. 0503170) are detached from culture dishes with a cell dissociation buffer (Invitrogen, 13151-014), and collected in growing medium (GM: RPM11640 (Invitrogen 21875)/10% FCS, 1% Penicilin/streptomycin). Cells are counted washed and resuspended in assay buffer (AB; HBSS, 20 mM HEPES, 0.2% BSA; 2 mM IBMX). 4′000 cells in 5 μl of AB are seeded per well of a small volume 384 well plate (black with flat bottom, Greiner 784076).
PGE2 (Cayman 14010, stock solution: 750 in DMSO) is used as agonist at 75 nM final concentration, corresponding to EC80.
Two point five microliters of diluted compounds are transferred into the assay plate. Plate is pre-incubated 45 minutes at room temperature. Subsequently, 2.5 microliters of PGE2 (final conc. 75 nM) are transferred into the assay plate. Plate is incubated 30 minutes at room temperature.
as §3

PTRGER4 (EP4) = PTRGER4 (EP4) (Homo sapiens, UniProt P35408);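 note: assay plate preincubated 15 min at 37 °C, after which PGE2 was added at 20 nM final and incubation continued 120 min at 37 °C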
Chain of PTRGER4 (EP4) (P35408 whole entry): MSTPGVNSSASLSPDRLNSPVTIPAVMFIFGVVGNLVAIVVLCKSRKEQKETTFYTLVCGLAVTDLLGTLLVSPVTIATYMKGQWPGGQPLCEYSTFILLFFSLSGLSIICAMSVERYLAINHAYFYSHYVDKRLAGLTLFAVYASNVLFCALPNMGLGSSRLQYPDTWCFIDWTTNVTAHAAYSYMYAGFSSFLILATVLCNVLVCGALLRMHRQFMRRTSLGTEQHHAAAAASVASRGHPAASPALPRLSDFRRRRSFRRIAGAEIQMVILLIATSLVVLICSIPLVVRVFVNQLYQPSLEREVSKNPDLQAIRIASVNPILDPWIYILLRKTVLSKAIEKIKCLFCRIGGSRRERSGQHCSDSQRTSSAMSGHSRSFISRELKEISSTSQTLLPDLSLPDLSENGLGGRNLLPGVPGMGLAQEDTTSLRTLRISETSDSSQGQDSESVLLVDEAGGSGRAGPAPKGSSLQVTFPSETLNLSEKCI

Chain of EP4 (P35408 whole entry): as above
Chain of PTGER2 (EP2) (P43116 whole entry): as the sequence (P43116 whole entry) above

IC50 (PTGER2 (EP2)) | IC50 (EP4) | IC50 (EP2) | IC50 (PTRGER4 (EP4)) | Compound
9 nM | 16 nM | 28 nM | 31 nM | CCOc1cc(-c2cc(NCCc3c(F)cc(Br)cc3F)nc(C)n2)sc1-c1noc(=O)[nH]1 [Example 156, 3-(5-{6-[2-(4-Bromo-2,6-difluoro-phenyl)-ethylamino]-2-methyl-pyrimidin-4-yl}-3-ethoxy-thiophen-2-yl)-[1,2,4]oxadiazol-5(4H)-one]
64 nM | 34 nM | 99 nM | 57 nM | CCOc1cc(-c2cc(NCCc3ccc(Br)cc3)nc(C)n2)sc1-c1noc(=O)[nH]1 [Example 157, 3-(5-{6-[2-(4-Bromo-phenyl)-ethylamino]-2-methyl-pyrimidin-4-yl}-3-ethoxy-thiophen-2-yl)-[1,2,4]oxadiazol-5(4H)-one]
20 nM | 5 nM | 46 nM | 2 nM | CC(C)Oc1cc(-c2cc(NCCc3c(F)cc(Br)cc3F)ncn2)sc1-c1noc(=O)[nH]1 [Example 162, 3-(5-{6-[2-(4-Bromo-2,6-difluoro-phenyl)-ethylamino]-pyrimidin-4-yl}-3-isopropoxy-thiophen-2-yl)-[1,2,4]oxadiazol-5(4H)-one]
190 nM | 2000 nM | 1690 nM | 196 nM | O=C(O)c1ccc2[nH]c(-c3cc(NCCc4c(F)cc(Br)cc4F)ncn3)cc2c1 [Example 168, 2-{6-[2-(4-Bromo-2,6-difluoro-phenyl)-ethylamino]-pyrimidin-4-yl}-1H-indole-5-carboxylic acid]
21 nM | 1380 nM | 74 nM | 457 nM | O=C(O)c1ccc2cc(-c3cc(NCCc4c(F)cc(Br)cc4F)ncn3)[nH]c2c1 [Example 169, 2-{6-[2-(4-Bromo-2,6-difluoro-phenyl)-ethylamino]-pyrimidin-4-yl}-1H-indole-6-carboxylic acid]
36 nM | 94 nM | 265 nM | 108 nM | COc1cc(-c2cc(NCCc3c(F)cc(Br)cc3F)ncn2)ccc1-c1cc(O)no1 [Example 174, 5-(4-{6-[2-(4-Bromo-2,6-difluoro-phenyl)-ethylamino]-pyrimidin-4-yl}-2-methoxy-phenyl)-isoxazol-3-ol]
22 nM | 6 nM | 9 nM | 75 nM | COc1cc(-c2cc(NCCc3c(F)cc(Br)cc3F)ncn2)sc1C(=O)O [Example 176, 5-{6-[2-(4-Bromo-2,6-difluoro-phenyl)-ethylamino]-pyrimidin-4-yl}-3-methoxy-thiophene-2-carboxylic acid]
29 nM | 134 nM | 10 nM | 404 nM | CCOc1cc(-c2cc(NCCc3c(C)cccc3OC)ncn2)sc1C(=O)O [Example 178, 3-Ethoxy-5-{6-[2-(2-methoxy-6-methyl-phenyl)-ethylamino]-pyrimidin-4-yl}-thiophene-2-carboxylic acid]
119 nM | 221 nM | 52 nM | 674 nM | CCOc1cc(-c2cc(NCCc3c(F)cc(Br)cc3F)ncn2)ccc1C(=O)O [Example 180, 4-{6-[2-(4-Bromo-2,6-difluoro-phenyl)-ethylamino]-pyrimidin-4-yl}-2-ethoxy-benzoic acid]
165 nM | 34 nM | 92 nM | 96 nM | CCOc1cc(-c2cc(NCCc3ccc(Cl)c(Cl)c3C)ncn2)sc1C(=O)O [Example 181, 5-{6-[2-(3,4-Dichloro-2-methyl-phenyl)-ethylamino]-pyrimidin-4-yl}-3-ethoxy-thiophene-2-carboxylic acid]

Compound | IC50 (PTGER2 (EP2)) | IC50 (EP4) | IC50 (EP2) | IC50 (PTRGER4 (EP4))
CCCCOc1cc(-c2cc(NCCc3c(F)cc(Br)cc3F)ncn2)cc(F)c1C(=O)O [Example 167, 4-{6-[2-(4-Bromo-2,6-difluoro-phenyl)-ethylamino]-pyrimidin-4-yl}-2-butoxy-6-fluoro-benzoic acid] | 42 nM | 1080 nM | 198 nM | 431 nM
